The IC50 is the midpoint of a concentration-inhibition curve. In general, IC90 refers to the concentration at which the effect reaches the 90% level.

We go through 1 compound from patent US9328122B2, “7-substituted Hanfangichin B derivative, and preparation method and use thereof” (HANGZHOU BENSHENG PHARMACEUTICAL CO., LTD., priority 2012, dated 2016).

≈ marks a conversion by molar mass, not a printed value.

In the first assay the test system is NB4 (acute promyelocytic leukemia) cells. Kind of assay: MTT cell growth inhibition, leukemia cells. It is filed as cell-based. The note with it: Homo sapiens; NB4, 72 h, MTT; read-out: IC50. An excerpt: (§1) Leukemia cell lines: leukemia cell lines: K562adr (drug-resistant, chronic myeloid leukemia, CML), NB4 (acute promyelocytic leukemia, AML), Kasumi-1 (acute myeloid leukemia M2 type, AML-M2), Jurkat (acute lymphoblastic leukemia, ALL), all of which were donated by Cancer Research Institute of Zhejiang University, China; and H9 (acute lymphoblastic leukemia, ALL), which was purchased from China Center for Type Culture Collection.
(§2) Reagents: The standard sample of fangchinoline (FAN) was purchased from Ci Yuan Biotechnology Co., Ltd., Shaanxi, China; and the 7-substituted fangchinoline derivatives according to the present invention.
(§3) 6000 well-growing leukemia cells were obtained and inoculated into wells of a 96-well cell culture plate. The culture medium was a RPMI-1640 cell culture medium containing 10% fetal bovine serum. After adding the 7-substituted fangchinoline derivatives of different concentrations the next day and mixing uniformly, the plate was placed in a carbon dioxide cell incubator (5% CO2) at 37° C. and incubating for 72 hours. Then the viable cell concentration was determined by the MTT method.
In the case of `COc1ccc2cc1Oc1ccc(cc1)C[C@H]1c3cc(c(OC)cc3CCN1C)Oc1c(OS(=O)(=O)c3ccc(C)cc3)c(OC)cc3c1[C@H](C2)N(C)CC3` [BS-FC-102], the IC50 was 0.38 µg/mL (≈ 0.498 µM).

The same assay, now with this note: Homo sapiens; NB4, 72 h, MTT; read-out: IC90.
As to `COc1ccc2cc1Oc1ccc(cc1)C[C@H]1c3cc(c(OC)cc3CCN1C)Oc1c(OS(=O)(=O)c3ccc(C)cc3)c(OC)cc3c1[C@H](C2)N(C)CC3` [BS-FC-102], the IC90 came out at 0.94 µg/mL (≈ 1.23 µM).

In a further assay the test system is K562/ADR (K562adr, drug-resistant chronic myeloid leukemia) cells. Kind of assay: MTT cell growth inhibition, leukemia cells. The conditions noted are these: Homo sapiens; K562/ADR, 72 h, MTT; read-out: IC50. It is filed as cell-based.
Text: as §1, §2, §3
As for `COc1ccc2cc1Oc1ccc(cc1)C[C@H]1c3cc(c(OC)cc3CCN1C)Oc1c(OS(=O)(=O)c3ccc(C)cc3)c(OC)cc3c1[C@H](C2)N(C)CC3` [BS-FC-102], the IC50 was 0.4 µg/mL (≈ 0.524 µM).

Staying with this assay, now noted: Homo sapiens; K562/ADR, 72 h, MTT; read-out: IC90.
In the case of `COc1ccc2cc1Oc1ccc(cc1)C[C@H]1c3cc(c(OC)cc3CCN1C)Oc1c(OS(=O)(=O)c3ccc(C)cc3)c(OC)cc3c1[C@H](C2)N(C)CC3` [BS-FC-102], the IC90 was 3.03 µg/mL (≈ 3.97 µM).

The test system of a further assay is Kasumi-1 (acute myeloid leukemia M2 type) cells. Kind of assay: MTT cell growth inhibition, leukemia cells. In kind it is cell-based, human. The note with it: Homo sapiens; Kasumi-1, 72 h, MTT; read-out: IC50.
Text: as §1, §2, §3
On to `COc1ccc2cc1Oc1ccc(cc1)C[C@H]1c3cc(c(OC)cc3CCN1C)Oc1c(OS(=O)(=O)c3ccc(C)cc3)c(OC)cc3c1[C@H](C2)N(C)CC3` [BS-FC-102], for which the IC50 came out at 1.93 µg/mL (≈ 2.53 µM).

The assay is the same for the next values; noted with them: Homo sapiens; Kasumi-1, 72 h, MTT; read-out: IC90.
As to `COc1ccc2cc1Oc1ccc(cc1)C[C@H]1c3cc(c(OC)cc3CCN1C)Oc1c(OS(=O)(=O)c3ccc(C)cc3)c(OC)cc3c1[C@H](C2)N(C)CC3` [BS-FC-102], the IC90 is 4.32 µg/mL (≈ 5.66 µM).

The subject of a further assay is H9 (acute lymphoblastic leukemia) cells. Kind of assay: MTT cell growth inhibition, leukemia cells. In kind it is cell-based, human. The note with it: Homo sapiens; H9, 72 h, MTT; read-out: IC50.
Text: as §1, §2, §3
`COc1ccc2cc1Oc1ccc(cc1)C[C@H]1c3cc(c(OC)cc3CCN1C)Oc1c(OS(=O)(=O)c3ccc(C)cc3)c(OC)cc3c1[C@H](C2)N(C)CC3` [BS-FC-102]: the IC50 was found to be 2.4 µg/mL (≈ 3.15 µM).

The same assay, now with this note: Homo sapiens; H9, 72 h, MTT; read-out: IC90.
As for `COc1ccc2cc1Oc1ccc(cc1)C[C@H]1c3cc(c(OC)cc3CCN1C)Oc1c(OS(=O)(=O)c3ccc(C)cc3)c(OC)cc3c1[C@H](C2)N(C)CC3` [BS-FC-102], the IC90 was found to be 6.4 µg/mL (≈ 8.39 µM).

The test system of another assay is Jurkat (acute lymphoblastic leukemia) cells. Kind of assay: MTT cell growth inhibition, leukemia cells. In kind it is cell-based, human. The note with it: Homo sapiens; Jurkat, 72 h, MTT; read-out: IC50.
Text: as §1, §2, §3
As to `COc1ccc2cc1Oc1ccc(cc1)C[C@H]1c3cc(c(OC)cc3CCN1C)Oc1c(OS(=O)(=O)c3ccc(C)cc3)c(OC)cc3c1[C@H](C2)N(C)CC3` [BS-FC-102], the IC50 was found to be 0.72 µg/mL (≈ 0.944 µM).

Still in this assay, the particulars now being: Homo sapiens; Jurkat, 72 h, MTT; read-out: IC90.
For the compound `COc1ccc2cc1Oc1ccc(cc1)C[C@H]1c3cc(c(OC)cc3CCN1C)Oc1c(OS(=O)(=O)c3ccc(C)cc3)c(OC)cc3c1[C@H](C2)N(C)CC3` [BS-FC-102], the IC90 was found to be 1.97 µg/mL (≈ 2.58 µM).

The subject of the next assay is Becap-37 (human breast cancer) cells. Kind of assay: MTT cell growth inhibition, solid tumor cells. In kind it is cell-based. The note with it: Homo sapiens; Becap-37, 72 h, MTT; read-out: IC50. An excerpt: (§4) Hep-2 (laryngeal carcinoma), A549 (human lung cancer), CaES-17 (esophageal cancer cell), PC-3 (prostate cancer), CNE (nasopharyngeal carcinoma cell) and SK-OV-3 (ovarian cancer cell), all of which were purchased from China Center For Type Culture Collection; RKO (human colon adenocarcinoma cell), MGC-803 (human gastric cancer cell), MG-63 (osteosarcoma), and U87-MG (malignant glioma cell), all of which were purchased from Fuxiang Bio-tech Co. Ltd., Shanghai, China; PANC-1 (pancreatic cancer), Becap37 (human breast cancer cell), Hela (human cervical cancer cell) and Hep G2 (human liver cancer cell), all of which were donated by Cancer Research Institute of Zhejiang University, China.
(§5) 6000 well-growing human solid tumor cells were obtained and inoculated into wells of a 96-well cell culture plate. The culture medium was DMEM High Glucose cell culture medium containing 10% fetal bovine serum. The plate was placed in a carbon dioxide cell incubator (5% CO2) at 37° C. and incubated for 24 hours. After added with 7-substituted fangchinoline derivatives of different concentration and mixing uniformly, the plate was placed in a carbon dioxide cell incubator (5% CO2) at 37° C. and incubated for 72 hours. Then the viable cell concentration was determined by the MTT method.
Consider `COc1ccc2cc1Oc1ccc(cc1)C[C@H]1c3cc(c(OC)cc3CCN1C)Oc1c(OS(=O)(=O)c3ccc(C)cc3)c(OC)cc3c1[C@H](C2)N(C)CC3` [BS-FC-102], for which the IC50 is 2.49 µg/mL (≈ 3.26 µM).

Still in this assay, the particulars now being: Homo sapiens; Becap-37, 72 h, MTT; read-out: IC90.
With `COc1ccc2cc1Oc1ccc(cc1)C[C@H]1c3cc(c(OC)cc3CCN1C)Oc1c(OS(=O)(=O)c3ccc(C)cc3)c(OC)cc3c1[C@H](C2)N(C)CC3` [BS-FC-102], the IC90 came out at 4 µg/mL (≈ 5.24 µM).

The next assay relates to Hep G2 (human liver cancer) cells. Kind of assay: MTT cell growth inhibition, solid tumor cells. It is filed as cell-based. The conditions noted are these: Homo sapiens, HepG2; Hep G2, 72 h, MTT; read-out: IC50.
Text: as §4, §5
In the case of `COc1ccc2cc1Oc1ccc(cc1)C[C@H]1c3cc(c(OC)cc3CCN1C)Oc1c(OS(=O)(=O)c3ccc(C)cc3)c(OC)cc3c1[C@H](C2)N(C)CC3` [BS-FC-102], the IC50 is 1.56 µg/mL (≈ 2.04 µM).

Staying with this assay, now noted: Homo sapiens, HepG2; Hep G2, 72 h, MTT; read-out: IC90.
Consider `COc1ccc2cc1Oc1ccc(cc1)C[C@H]1c3cc(c(OC)cc3CCN1C)Oc1c(OS(=O)(=O)c3ccc(C)cc3)c(OC)cc3c1[C@H](C2)N(C)CC3` [BS-FC-102], for which the IC90 amounted to 3.94 µg/mL (≈ 5.16 µM).

Another assay deals with U87-MG (malignant glioma) cells. Kind of assay: MTT cell growth inhibition, solid tumor cells. In kind it is cell-based. The note with it: Homo sapiens, U-87 MG; U87-MG, 72 h, MTT; read-out: IC50.
Text: as §4, §5
Take `COc1ccc2cc1Oc1ccc(cc1)C[C@H]1c3cc(c(OC)cc3CCN1C)Oc1c(OS(=O)(=O)c3ccc(C)cc3)c(OC)cc3c1[C@H](C2)N(C)CC3` [BS-FC-102]: the IC50 amounted to 1.79 µg/mL (≈ 2.35 µM).

The assay is the same for the next values; noted with them: Homo sapiens, U-87 MG; U87-MG, 72 h, MTT; read-out: IC90.
Turning to `COc1ccc2cc1Oc1ccc(cc1)C[C@H]1c3cc(c(OC)cc3CCN1C)Oc1c(OS(=O)(=O)c3ccc(C)cc3)c(OC)cc3c1[C@H](C2)N(C)CC3` [BS-FC-102], the IC90 was determined as 5.39 µg/mL (≈ 7.06 µM).

The subject of another assay is RKO (human colon adenocarcinoma) cells. Kind of assay: MTT cell growth inhibition, solid tumor cells. The note with it: Homo sapiens; RKO, 72 h, MTT; read-out: IC50. It is filed as cell-based.
Text: as §4, §5
As to `COc1ccc2cc1Oc1ccc(cc1)C[C@H]1c3cc(c(OC)cc3CCN1C)Oc1c(OS(=O)(=O)c3ccc(C)cc3)c(OC)cc3c1[C@H](C2)N(C)CC3` [BS-FC-102], the half-maximal inhibitory concentration (IC50) was found to be 1.44 µg/mL (≈ 1.89 µM).
